Patent US8445492B2, “Method for inhibiting growth of cancer cells and cell telomere and diseases of cell proliferation by using heteroannelated anthraquinone derivative compounds” (National Defense Medical Center, priority 2008, dated 2013)

What was measured:
Type in all cases: cell-based
MCF7 [1] = assay: in vitro test at 1.0×10^−5 M, Breast cancer cell; conditions: 1.0×10^−5 molal concentration (M)
T-47D = assay: in vitro test at 1.0×10^−5 M, Breast cancer cell; conditions: 1.0×10^−5 molal concentration (M)
SF-539 = assay: in vitro test at 1.0×10^−5 M, CNS cancer cell; conditions: 1.0×10^−5 molal concentration (M)
MALME-3M [2] = assay: in vitro test at 1.0×10^−5 M, Skin cancer cell; conditions: 1.0×10^−5 molal concentration (M)
MOLT-4 = assay: in vitro test at 1.0×10^−5 M, Blood cancer cell; conditions: 1.0×10^−5 molal concentration (M)
ACHN = assay: in vitro test at 1.0×10^−5 M, Kidney cancer cell; conditions: 1.0×10^−5 molal concentration (M)
HOP-92 = assay: in vitro test at 1.0×10^−5 M, Non-small cell lung cancer cell; conditions: 1.0×10^−5 molal concentration (M)
SN12C = assay: in vitro test at 1.0×10^−5 M, Kidney cancer cell; conditions: 1.0×10^−5 molal concentration (M)
SR = assay: NCI DTP in-vitro dose response, Leukemia
TK-10 = assay: NCI DTP in-vitro dose response, Renal Cancer
MCF7 [3] = assay: NCI DTP in-vitro dose response, Breast Cancer
MDA-MB-468 = assay: NCI DTP in-vitro dose response, Breast Cancer
HT29 = assay: NCI DTP in-vitro dose response, Colon Cancer
UACC-257 = assay: NCI DTP in-vitro dose response, Melanoma
SNB-19 = assay: NCI DTP in-vitro dose response, CNS Cancer
BT-549 = assay: NCI DTP in-vitro dose response, Breast Cancer
SNB-75 = assay: NCI DTP in-vitro dose response, CNS Cancer
SF-268 = assay: NCI DTP in-vitro dose response, CNS Cancer
SW-620 = assay: NCI DTP in-vitro dose response, Colon Cancer
CAKI-1 = assay: NCI DTP in-vitro dose response, Renal Cancer
MALME-3M [4] = assay: NCI DTP in-vitro dose response, Melanoma
KM12 = assay: NCI DTP in-vitro dose response, Colon Cancer
A498 = assay: NCI DTP in-vitro dose response, Renal Cancer

CCc1nc2ccc3c(c2[nH]1)C(=O)c1ccccc1C3=O [No. 4, 2-Ethyl-1(3)H-anthra[1,2-d]imidazole-6,11-dione]
inhibition effect on cancer cell line (Table 2 value) (MCF7 [1]): 69.82
inhibition effect on cancer cell line (Table 2 value) (T-47D): 63.05
inhibition effect on cancer cell line (Table 2 value) (SF-539): 83.16
inhibition effect on cancer cell line (Table 2 value) (MALME-3M [2]): 56.94
inhibition effect on cancer cell line (Table 2 value) (MOLT-4): 64.17
inhibition effect on cancer cell line (Table 2 value) (ACHN): 24.97
inhibition effect on cancer cell line (Table 2 value) (HOP-92): 41.43
inhibition effect on cancer cell line (Table 2 value) (SN12C): 68.53

O=C1c2ccccc2C(=O)c2c1ccc1nsnc21 [No. 22, Anthra[2,1-c][1,2,5]thiadiazole-6,11-dione]
GI50 (SR; Homo sapiens, SR): 6.89 µM
CC50 (SR; Homo sapiens, SR, read-out: LC50): > 100 µM
Percent Growth (SR; Log10 Concentration −4.0): −22%
Percent Growth (SR; Log10 Concentration −5.0): 41%
Percent Growth (SR; Log10 Concentration −6.0): 99%
Percent Growth (SR; Log10 Concentration −7.0): 112%
Percent Growth (SR; Log10 Concentration −8.0): 108%
TGI (SR; SR): >1.00E−4
GI50 (TK-10; Homo sapiens, TK-10): 34.9 µM
CC50 (TK-10; Homo sapiens, TK-10, read-out: LC50): > 100 µM
Percent Growth (TK-10; Log10 Concentration −4.0): −7%
Percent Growth (TK-10; Log10 Concentration −5.0): 118%
Percent Growth (TK-10; Log10 Concentration −6.0): 144%
Percent Growth (TK-10; Log10 Concentration −7.0): 133%
Percent Growth (TK-10; Log10 Concentration −8.0): 117%
TGI (TK-10; TK-10): 8.80E−5
GI50 (MCF7 [3]; Homo sapiens, MCF7): 1.24 µM
CC50 (MCF7 [3]; Homo sapiens, MCF7, read-out: LC50): 7.72 µM
Percent Growth (MCF7 [3]; Log10 Concentration −4.0): −63%
Percent Growth (MCF7 [3]; Log10 Concentration −5.0): −64%
Percent Growth (MCF7 [3]; Log10 Concentration −6.0): 62%
Percent Growth (MCF7 [3]; Log10 Concentration −7.0): 77%
Percent Growth (MCF7 [3]; Log10 Concentration −8.0): 88%
TGI (MCF7 [3]; MCF7): 3.10E−6
GI50 (MDA-MB-468; Homo sapiens, MDA-MB-468): 1.83 µM
CC50 (MDA-MB-468; Homo sapiens, MDA-MB-468, read-out: LC50): 5.72 µM
Percent Growth (MDA-MB-468; Log10 Concentration −4.0): −99%
Percent Growth (MDA-MB-468; Log10 Concentration −5.0): −99%
Percent Growth (MDA-MB-468; Log10 Concentration −6.0): 103%
Percent Growth (MDA-MB-468; Log10 Concentration −7.0): 101%
Percent Growth (MDA-MB-468; Log10 Concentration −8.0): 97%
TGI (MDA-MB-468; MDA-MB-468): 3.24E−6
TGI (HT29; HT29): 7.36E−6
GI50 (HT29; Homo sapiens, HT-29): 2.75 µM
CC50 (HT29; Homo sapiens, HT-29, read-out: LC50): 81 µM
Percent Growth (HT29; Log10 Concentration −4.0): −53%
Percent Growth (HT29; Log10 Concentration −5.0): −16%
Percent Growth (HT29; Log10 Concentration −6.0): 101%
Percent Growth (HT29; Log10 Concentration −7.0): 105%
Percent Growth (HT29; Log10 Concentration −8.0): 104%
GI50 (UACC-257; Homo sapiens, UACC-257): 1.48 µM
CC50 (UACC-257; Homo sapiens, UACC-257, read-out: LC50): 6.21 µM
Percent Growth (UACC-257; Log10 Concentration −4.0): −91%
Percent Growth (UACC-257; Log10 Concentration −5.0): −83%
Percent Growth (UACC-257; Log10 Concentration −6.0): 77%
Percent Growth (UACC-257; Log10 Concentration −7.0): 101%
Percent Growth (UACC-257; Log10 Concentration −8.0): 96%
TGI (UACC-257; UACC-257): 3.03E−6
GI50 (SNB-19; Homo sapiens, SNB-19): 1.86 µM
CC50 (SNB-19; Homo sapiens, SNB-19, read-out: LC50): 6.43 µM
Percent Growth (SNB-19; Log10 Concentration −4.0): −98%
Percent Growth (SNB-19; Log10 Concentration −5.0): −86%
Percent Growth (SNB-19; Log10 Concentration −6.0): 100%
Percent Growth (SNB-19; Log10 Concentration −7.0): 101%
Percent Growth (SNB-19; Log10 Concentration −8.0): 102%
TGI (SNB-19; SNB-19): 3.46E−6
TGI (BT-549; BT-549): 3.55E−5
GI50 (BT-549; Homo sapiens, BT-549): 13.1 µM
CC50 (BT-549; Homo sapiens, BT-549, read-out: LC50): 96.2 µM
Percent Growth (BT-549; Log10 Concentration −4.0): −52%
Percent Growth (BT-549; Log10 Concentration −5.0): 64%
Percent Growth (BT-549; Log10 Concentration −6.0): 126%
Percent Growth (BT-549; Log10 Concentration −7.0): 102%
Percent Growth (BT-549; Log10 Concentration −8.0): 92%
GI50 (SNB-75; Homo sapiens, SNB-75): 1.42 µM
CC50 (SNB-75; Homo sapiens, SNB-75, read-out: LC50): 5.22 µM
Percent Growth (SNB-75; Log10 Concentration −4.0): −100%
Percent Growth (SNB-75; Log10 Concentration −5.0): −100%
Percent Growth (SNB-75; Log10 Concentration −6.0): 77%
Percent Growth (SNB-75; Log10 Concentration −7.0): 66%
Percent Growth (SNB-75; Log10 Concentration −8.0): 76%
TGI (SNB-75; SNB-75): 2.73E−6
GI50 (SF-268; Homo sapiens, SF-268): 3.55 µM
CC50 (SF-268; Homo sapiens, SF-268, read-out: LC50): > 100 µM
Percent Growth (SF-268; Log10 Concentration −4.0): −46%
Percent Growth (SF-268; Log10 Concentration −5.0): 17%
Percent Growth (SF-268; Log10 Concentration −6.0): 90%
Percent Growth (SF-268; Log10 Concentration −7.0): 98%
Percent Growth (SF-268; Log10 Concentration −8.0): 101%
TGI (SF-268; SF-268): 1.87E−5
GI50 (SW-620; Homo sapiens, SW-620): 8.55 µM
CC50 (SW-620; Homo sapiens, SW-620, read-out: LC50): 69.2 µM
Percent Growth (SW-620; Log10 Concentration −4.0): −68%
Percent Growth (SW-620; Log10 Concentration −5.0): 46%
Percent Growth (SW-620; Log10 Concentration −6.0): 107%
Percent Growth (SW-620; Log10 Concentration −7.0): 103%
Percent Growth (SW-620; Log10 Concentration −8.0): 106%
TGI (SW-620; SW-620): 2.52E−5
TGI (CAKI-1; CAKI-1): 6.16E−6
GI50 (CAKI-1; Homo sapiens, CAKI-1): 2.18 µM
CC50 (CAKI-1; Homo sapiens, CAKI-1, read-out: LC50): 41.5 µM
Percent Growth (CAKI-1; Log10 Concentration −4.0): −66%
Percent Growth (CAKI-1; Log10 Concentration −5.0): −23%
Percent Growth (CAKI-1; Log10 Concentration −6.0): 88%
Percent Growth (CAKI-1; Log10 Concentration −7.0): 95%
Percent Growth (CAKI-1; Log10 Concentration −8.0): 90%
GI50 (MALME-3M [4]; Homo sapiens, Malme-3M): 2.37 µM
CC50 (MALME-3M [4]; Homo sapiens, Malme-3M, read-out: LC50): 9.55 µM
Percent Growth (MALME-3M [4]; Log10 Concentration −4.0): −72%
Percent Growth (MALME-3M [4]; Log10 Concentration −5.0): −53%
Percent Growth (MALME-3M [4]; Log10 Concentration −6.0): 112%
Percent Growth (MALME-3M [4]; Log10 Concentration −7.0): 115%
Percent Growth (MALME-3M [4]; Log10 Concentration −8.0): 102%
TGI (MALME-3M [4]; MALME-3M): 4.76E−6
GI50 (KM12; Homo sapiens, KM12): 11.4 µM
CC50 (KM12; Homo sapiens, KM12, read-out: LC50): 94.8 µM
TGI (KM12; KM12): 3.28E−5
Percent Growth (KM12; Log10 Concentration −4.0): −53%
Percent Growth (KM12; Log10 Concentration −5.0): 56%
Percent Growth (KM12; Log10 Concentration −6.0): 103%
Percent Growth (KM12; Log10 Concentration −7.0): 108%
Percent Growth (KM12; Log10 Concentration −8.0): 107%
TGI (A498; A498): >1.00E−4
GI50 (A498; Homo sapiens, A498): > 100 µM
CC50 (A498; Homo sapiens, A498, read-out: LC50): > 100 µM
Percent Growth (A498; Log10 Concentration −4.0): 84%
Percent Growth (A498; Log10 Concentration −5.0): 100%
Percent Growth (A498; Log10 Concentration −6.0): 96%
Percent Growth (A498; Log10 Concentration −7.0): 104%
Percent Growth (A498; Log10 Concentration −8.0): 105%
